12 molecules from patent EP2970215B1, “PYRROLIDINE DERIVATIVES, PHARMACEUTICAL COMPOSITIONS CONTAINING THEM, AND THEIR USE IN THERAPY” (AbbVie Deutschland GmbH & Co. KG, priority 2013, dated 2014) can be followed below.

In this experiment the target is T1, human GlyT1c transporter (Homo sapiens, UniProt P48067).
T1 construct: expressed in transfected cells; host or cells: CHO cells (recombinant; line hGlyT1c_5_CHO is named for the uptake assay)
T1 sequence (P48067 1-706): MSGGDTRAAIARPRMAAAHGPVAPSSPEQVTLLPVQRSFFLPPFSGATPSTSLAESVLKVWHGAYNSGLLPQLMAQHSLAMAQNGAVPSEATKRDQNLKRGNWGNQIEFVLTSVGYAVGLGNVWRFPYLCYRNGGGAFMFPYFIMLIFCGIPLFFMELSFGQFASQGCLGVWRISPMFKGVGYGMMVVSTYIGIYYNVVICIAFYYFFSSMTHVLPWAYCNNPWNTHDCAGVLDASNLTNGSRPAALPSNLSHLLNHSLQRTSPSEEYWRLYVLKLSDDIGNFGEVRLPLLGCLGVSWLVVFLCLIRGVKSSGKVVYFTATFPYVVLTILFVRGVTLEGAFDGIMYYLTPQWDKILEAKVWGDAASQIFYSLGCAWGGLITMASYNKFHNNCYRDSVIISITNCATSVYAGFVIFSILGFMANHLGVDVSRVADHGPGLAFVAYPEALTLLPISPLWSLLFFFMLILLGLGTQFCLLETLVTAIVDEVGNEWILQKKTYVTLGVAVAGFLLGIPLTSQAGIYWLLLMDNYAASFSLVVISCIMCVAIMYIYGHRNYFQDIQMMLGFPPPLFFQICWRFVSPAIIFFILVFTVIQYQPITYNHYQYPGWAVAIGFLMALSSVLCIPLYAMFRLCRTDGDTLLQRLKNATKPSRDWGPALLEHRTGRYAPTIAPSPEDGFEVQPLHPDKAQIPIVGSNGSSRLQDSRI
As to the kind of experiment: Radioligand binding assay using recombinant CHO cell membranes expressing human GlyT1. To be noted: radioligand binding to human GlyT1c transporter-expressing membranes. The source says: 2. Radioligand binding assays using recombinant CHO cell membranes expressing human GlyT1: […]
For the molecule `Cn1cnc(S(=O)(=O)N2C[C@@H](NCc3ccc(C(F)(F)F)c(Cl)c3)[C@H](c3ccc(F)cc3)C2)c1` (relative stereo) [Example 151, trans-N-[3-chloro-4-(trifluoromethyl)benzyl]-4-(4-fluorophenyl)-1-[(1-methyl-1H-imidazol-4-yl)sulfonyl]pyrrolidin-3-amine], the inhibition constant Ki (in general, the equilibrium dissociation constant of an inhibitor or competing ligand from its target) was at most 100 nM. As for `Cn1cnc(S(=O)(=O)N2C[C@H](NCCCc3cccc(Cl)c3)[C@@H](c3ccccc3)C2)c1` [Example 471, (3R,4S)-N-[3-(3-chlorophenyl)propyl]-1-[(1-methyl-1H-imidazol-4-yl)sulfonyl]-4-phenylpyrrolidin-3-amine], the figure is at most 100 nM; as for `Cn1cnc(S(=O)(=O)N2C[C@H](NCc3nc4c(s3)CCCC4)[C@@H](c3ccccc3)C2)c1` [Example 456, (3R,4S)-1-[(1-methyl-1H-imidazol-4-yl)sulfonyl]-4-phenyl-N-(4,5,6,7-tetrahydro-1,3-benzothiazol-2-ylmethyl)pyrrolidin-3-amine], at most 1000 nM; as for `CC(C)c1cccc(N[C@@H]2CN(S(=O)(=O)c3cn(C)cn3)C[C@H]2c2ccccc2)c1` (relative stereo) [Example 220, trans-1-[(1-methyl-1H-imidazol-4-yl)sulfonyl]-4-phenyl-N-[3-(propan-2-yl)phenyl]pyrrolidin-3-amine], at most 10 nM. As for `Cn1cnc(S(=O)(=O)N2C[C@@H](Nc3cccc(C(C)(C)C)c3)[C@H](c3ccc(F)cc3)C2)c1` (relative stereo) [Example 171, trans-N-(3-tert-butylphenyl)-4-(4-fluorophenyl)-1-[(1-methyl-1H-imidazol-4-yl)sulfonyl]pyrrolidin-3-amine], the figure is at most 100 nM. To `CCOc1cc(N[C@H]2CN(S(=O)(=O)c3cn(C)cn3)C[C@@H]2c2ccc(F)cc2)ncn1` [Example 715, 6-ethoxy-N-{(3R,4S)-4-(4-fluorophenyl)-1-[(1-methyl-1H-imidazol-4-yl)sulfonyl]pyrrolidin-3-yl}pyrimidin-4-amine] belongs at most 1000 nM. In the case of `Cc1nc(-c2ccccc2)sc1CN[C@H]1CN(S(=O)(=O)c2cn(C)cn2)C[C@@H]1c1ccccc1` [Example 473, (3R,4S)-1-[(1-methyl-1H-imidazol-4-yl)sulfonyl]-N-[(4-methyl-2-phenyl-1,3-thiazol-5-yl)methyl]-4-phenylpyrrolidin-3-amine], the inhibition constant (Ki) is at most 100 nM.

`Cn1cnc(S(=O)(=O)N2C[C@@H](Nc3cc(F)cc(Cl)c3)[C@H](c3ccc(F)cc3)C2)c1` (relative stereo) [Example 174, trans-N-(3-chloro-5-fluorophenyl)-4-(4-fluorophenyl)-1-[(1-methyl-1H-imidazol-4-yl)sulfonyl]pyrrolidin-3-amine]: the Ki is at most 1000 nM.

As for `Cn1cnc(S(=O)(=O)N2C[C@@H](Nc3cccc(C(F)(F)F)n3)[C@H](c3cccc(F)c3)C2)c1` (relative stereo) [Example 195, N-{trans-4-(3-fluorophenyl)-1-[(1-methyl-1H-imidazol-4-yl)sulfonyl]pyrrolidin-3-yl} -6-(trifluoromethyl)pyridin-2-amine], the Ki was at most 10000 nM.

Turning to `Cn1cnc(S(=O)(=O)N2C[C@@H](C(=O)NCC3CC3)[C@H](c3ccc(F)cc3)C2)c1` [Example 586, (3S,4R)-N-(cyclopropylmethyl)-4-(4-fluorophenyl)-1-[(1-methyl-1H-imidazol-4-yl)sulfonyl]pyrrolidine-3-carboxamide], the Ki was at most 1000 nM. Consider `Cn1cnc(S(=O)(=O)N2C[C@@H](Nc3ccc(F)c(F)c3)[C@H](c3ccc(F)cc3)C2)c1` (relative stereo) [Example 158, trans-N-(3,4-difluorophenyl)-4-(4-fluorophenyl)-1-[(1-methyl-1H-imidazol-4-yl)sulfonyl]pyrrolidin-3-amine], for which the inhibition constant (Ki) was at most 100 nM. To `Cn1cnc(S(=O)(=O)N2C[C@@H](Nc3ccc(F)c(OC(F)(F)F)c3)[C@H](c3ccccc3)C2)c1` (relative stereo) [Example 298, trans-N-[4-fluoro-3-(trifluoromethoxy)phenyl]-1-[(1-methyl-1H-imidazol-4-yl)sulfonyl] -4-phenylpyrrolidin-3-amine] belongs at most 10 nM.
